Columns and labels:
[1] = biological target: T1, AR (Homo sapiens, UniProt P10275); assay: AR activation (max fold activation); format: cell-based; conditions: Table 4
T1 sequence (P10275 1-920): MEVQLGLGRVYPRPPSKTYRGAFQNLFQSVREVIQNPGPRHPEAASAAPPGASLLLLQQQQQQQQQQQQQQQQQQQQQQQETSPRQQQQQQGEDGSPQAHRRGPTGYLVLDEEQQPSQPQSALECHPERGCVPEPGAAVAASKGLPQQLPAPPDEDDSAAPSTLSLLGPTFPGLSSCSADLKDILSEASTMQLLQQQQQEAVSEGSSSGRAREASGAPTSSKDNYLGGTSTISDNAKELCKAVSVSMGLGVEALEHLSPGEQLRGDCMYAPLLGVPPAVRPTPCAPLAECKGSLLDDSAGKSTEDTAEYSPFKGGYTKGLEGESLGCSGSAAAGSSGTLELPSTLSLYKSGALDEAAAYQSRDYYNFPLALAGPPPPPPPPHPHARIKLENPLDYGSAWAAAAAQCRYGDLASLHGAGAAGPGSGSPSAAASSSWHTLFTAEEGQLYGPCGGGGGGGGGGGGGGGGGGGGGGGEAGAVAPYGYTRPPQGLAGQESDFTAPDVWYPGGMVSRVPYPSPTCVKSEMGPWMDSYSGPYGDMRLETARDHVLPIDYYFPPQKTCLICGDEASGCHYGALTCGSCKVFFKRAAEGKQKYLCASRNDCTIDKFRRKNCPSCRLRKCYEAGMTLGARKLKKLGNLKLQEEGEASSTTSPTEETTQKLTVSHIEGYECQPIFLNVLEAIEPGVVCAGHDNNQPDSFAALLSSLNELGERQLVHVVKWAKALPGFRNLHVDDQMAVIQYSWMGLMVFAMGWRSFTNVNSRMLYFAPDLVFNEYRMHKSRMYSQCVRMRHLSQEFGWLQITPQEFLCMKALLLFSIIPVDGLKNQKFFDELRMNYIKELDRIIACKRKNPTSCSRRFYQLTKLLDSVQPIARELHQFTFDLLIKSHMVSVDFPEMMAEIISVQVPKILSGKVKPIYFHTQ

[2] = system: NF-κB; assay: NF-κB repression luciferase assay in A549 cells; format: cell-based, human; conditions: Table 5, TNF-α-stimulated A549 cells
Excerpt: Plasmids for GR (human, pSG5 backbone), AP1-Luc (synthetic AP1 response element upstream of a firefly luciferase gene), TAT3-Luc (three copies of the tyrosine aminotransferase glucocorticoid response element upstream of a firefly luciferase gene), β-galactosidase (used as a transfection control), as well as two stable transfected cells lines: an A549 (human, lung carcinoma) cell line stably transfected with a κB response element upstream of a firefly luciferase gene, (R. M. Nissen et al., Genes Dev., 14(18):2314-29, (2000)) and a U2OS (human, osteosarcoma) stably transfected with rat GR (I. Rogatsky, et al., Mol. Cell. Biol., 1997, 17, 3181-3193) were a gift of Professor Keith Yamamoto (Department of Biochemistry, University of California, San Francisco).
For NF-κB repression assays, A549 cells stably transfected with a luciferase reporter were grown under the same conditions as CV-1 cells. 50,000 cells/well were plated into 96 well plates and incubated for 12 h at 37° C. Either TNF-α alone or mixed with various hormone dilutions in media were then added to the cells, which were then incubated for 8 hours. Procedures for lysis and luciferase assay were performed as previously described. Protein content was used as a control in this case and the recommended procedures using the BCA Protein Assay Kit (Roche) were followed.

Compound | AR max fold activation [1] | EC50 ([2]; Homo sapiens, read-out: Repression NF-KB pot (EC50)) [nM] | Repression NF-KB % max repression [2] [%]
Cc1cc(O)cc(C)c1C(O)C1CCCC2=Cc3c(cnn3-c3ccc(F)cc3)CC21C (stereo not drawn) [Compound 227, 4-{[1-(4-Fluoro-phenyl)-4a-methyl-4,4a,5,6,7,8-hexahydro-1H-benzo[f]indazol-5-yl]-hydroxy-methyl}-3,5-dimethyl-phenol] | 4.6 ± 1.6 |  | 
CC12Cc3cnn(-c4ccc(F)cc4)c3C=C1CCCC2C(O)c1cccc2[nH]ccc12 (stereo not drawn) [Compound 237, [1-(4-Fluoro-phenyl)-4a-methyl-4,4a,5,6,7,8-hexahydro-1H-benzo[f]indazol-5-yl]-(1H-indol-4-yl)-methanol] |  | 26.4 | 74

— patent publication US7947726B2, “Non-steroidal ligands for the glucocorticoid receptor, and compositions thereof” (The Regents of the University of California, priority 2002, dated 2011)
